Results: paper PMC2692895 (Journal of medicinal chemistry, 2008)
Read-outs that look alike come from different tables or passages of the source.

Legend:
[1] = system: caspase-3 activation in MDA-MB-231 cells; assay: Caspase-3 activation; settings: MDA-MB-231, 24 hours
Permeability by PAMPA = assay type: in vitro ADME
[2] = Drug metabolic stability, S9 fraction with NADPH; assay type: in vitro ADME
[3] = system: MDA-MB-231 breast cancer cell lines; settings: cited from earlier work
MDA-MB-231 cells = assay: ATPLite cell viability, compound 3 and TRAIL alone or combined; assay type: cell-based, human; settings: low concentrations up to 110 ng/mL, 20 hours

Molecule: CN[C@@H](C)C(=O)Nc1ccc(Oc2ccc(OC)cc2)c(C(=O)NCc2csc(-c3cccs3)n2)c1 [Compound 3, (S)-2-(4-methoxyphenoxy)-5-(2-(methylamino)propanamido)-N-((2-(thiophen-2-yl)thiazol-4-yl)methyl)benzamide]
- caspase-3 activation [1]: increases caspase-3 activation
- Permeability (2 %), class (Permeability by PAMPA): High
- half-life [2]: 14.5 min

Molecule: COc1cc([C@@H]2c3cc4c(cc3[C@@H](O[C@@H]3O[C@@H]5CO[C@@H](C)O[C@H]5[C@H](O)[C@H]3O)[C@H]3COC(=O)[C@H]23)OCO4)cc(OC)c1O [etoposide, reference compound]
- DNA fragmentation ([3]; etoposide 5 µM): no obvious DNA fragmentation

B1: TRAIL: tumor necrosis factor-related apoptosis-inducing ligand (Genentech) (protein, UniProt P50591 1-281, looked up)
Tumor necrosis factor ligand …: MAMMEVQGGPSLGQTCVLIVIFTVLLQSLCVAVTYVYFTNELKQMQDKYSKSGIACFLKEDDSYWDPNDEESMNSPCWQVKWQLRQLVRKMILRTSEETISTVQEKQQNISPLVRERGPQRVAAHITGTRGRSNTLSSPNSKNEKALGRKINSWESSRSGHSFLSNLHLRNGELVIHEKGFYYIYSQTYFRFQEEIKENTKNDKQMVQYIYKYTSYPDPILLMKSARNSCWSKDAEYGLYSIYQGGIFELKENDRIFVSVTNEHLIDMDHEASFFGAFLVG
- DNA fragmentation ([3]; TRAIL 30 ng/ml): no obvious DNA fragmentation
- induction of tumor cell death, TRAIL alone (MDA-MB-231 cells): very little effects
